Results on 1 compound are retold here after ChEMBL document CHEMBL4190203, “Effects of Cinnamoyloxy-mammeisin from Geopropolis on Osteoclast Differentiation and Porphyromonas gingivalis-Induced Periodontitis” (J Nat Prod, 2017).

The source made the active and inactive calls. No cut-off for these calls is given here.

Data set [1] has as its system BMMC. Description: Inhibition of M-CSF/RANKL-induced osteoclast differentiation in C57BL/6 mouse BMMC assessed as decrease in multinucleated TRAP+ cells after 3 days by TRAP staining-based assay. In kind it is functional, cell-based.
Data set [2] deals with BMMC. Description: Inhibition of M-CSF/RANKL-induced osteoclast differentiation in C57BL/6 mouse BMMC assessed as decrease in multinucleated TRAP+ cells at 20 uM after 3 days by TRAP staining-based assay. In kind it is functional, cell-based.
In data set [3] the test system is BMMC. The data set is described as follows: Cytotoxicity against C57BL/6 mouse BMMC at 5 to 20 uM after 3 days in presence of M-CSF/RANKL by MTT assay. In kind it is cell-based. The conditions noted are these: 72 h. Background: Formazan colour is commonly taken as a measure of viable cells.
For data set [4], the system named is BMMC. Description: Reduction in M-CSF/RANKL-induced NFATc1 mRNA levels in C57BL/6 mouse BMMC at 20 uM after 3 days by RT-qPCR analysis. The data set is classed as functional, cell-based.
The test system of data set [5] is BMMC. The data set is described as follows: Reduction in M-CSF/RANKL-induced Trap/Acp5 mRNA levels in C57BL/6 mouse BMMC at 20 uM after 3 days by RT-qPCR analysis. In kind it is functional, cell-based.
For data set [6], the system named is BMMC. The data set is described as follows: Reduction in M-CSF/RANKL-induced Itgb3 mRNA levels in C57BL/6 mouse BMMC at 20 uM after 3 days by RT-qPCR analysis. In kind it is functional, cell-based. Background: Quantitative PCR measures a nucleic acid by following its amplification.
Data set [7] deals with BMMC. Description: Reduction in M-CSF/RANKL-induced V-ATPase mRNA levels in C57BL/6 mouse BMMC at 20 uM after 3 days by RT-qPCR analysis. The data set is classed as functional, cell-based.
Data set [8] relates to BMMC. The data set is described as follows: Reduction in M-CSF/RANKL-induced Ctsk mRNA levels in C57BL/6 mouse BMMC at 20 uM after 3 days by RT-qPCR analysis. In kind it is functional, cell-based.
The subject of data set [9] is BMMC. Description: Reduction in M-CSF/RANKL-induced MMP-9 mRNA levels in C57BL/6 mouse BMMC at 20 uM after 3 days by RT-qPCR analysis. In kind it is functional, cell-based.
For data set [10], the system named is BMMC. The data set is described as follows: Downregulation of M-CSF/RANKL-induced NFATc1 protein expression levels in C57BL/6 mouse BMMC after 3 days by Western blot analysis. In kind it is functional, cell-based. For orientation: A western blot detects proteins with antibodies after separation by electrophoresis.
For data set [11], the system named is BMMC. The data set is described as follows: Downregulation of M-CSF/RANKL-induced integrin alphaV protein expression levels in C57BL/6 mouse BMMC at 20 uM after 3 days by Western blot analysis. The data set is classed as functional, cell-based.
The test system of data set [12] is BMMC. The data set is described as follows: Downregulation of M-CSF/RANKL-induced CTSK protein expression levels in C57BL/6 mouse BMMC at 20 uM after 3 days by Western blot analysis. The data set is classed as functional, cell-based.
For data set [13], the target named is Matrix metalloproteinase-9 (Mus musculus) (UniProt P41245). Description: Inhibition of MMP9 activity in C57BL/6 mouse BMMC at 5 to 20 uM by coomassie blue staining-based gelatin zymography assay. In kind it is cell-based.
Sequence of Matrix metalloproteinase-9 (Mus musculus) (P41245 whole entry): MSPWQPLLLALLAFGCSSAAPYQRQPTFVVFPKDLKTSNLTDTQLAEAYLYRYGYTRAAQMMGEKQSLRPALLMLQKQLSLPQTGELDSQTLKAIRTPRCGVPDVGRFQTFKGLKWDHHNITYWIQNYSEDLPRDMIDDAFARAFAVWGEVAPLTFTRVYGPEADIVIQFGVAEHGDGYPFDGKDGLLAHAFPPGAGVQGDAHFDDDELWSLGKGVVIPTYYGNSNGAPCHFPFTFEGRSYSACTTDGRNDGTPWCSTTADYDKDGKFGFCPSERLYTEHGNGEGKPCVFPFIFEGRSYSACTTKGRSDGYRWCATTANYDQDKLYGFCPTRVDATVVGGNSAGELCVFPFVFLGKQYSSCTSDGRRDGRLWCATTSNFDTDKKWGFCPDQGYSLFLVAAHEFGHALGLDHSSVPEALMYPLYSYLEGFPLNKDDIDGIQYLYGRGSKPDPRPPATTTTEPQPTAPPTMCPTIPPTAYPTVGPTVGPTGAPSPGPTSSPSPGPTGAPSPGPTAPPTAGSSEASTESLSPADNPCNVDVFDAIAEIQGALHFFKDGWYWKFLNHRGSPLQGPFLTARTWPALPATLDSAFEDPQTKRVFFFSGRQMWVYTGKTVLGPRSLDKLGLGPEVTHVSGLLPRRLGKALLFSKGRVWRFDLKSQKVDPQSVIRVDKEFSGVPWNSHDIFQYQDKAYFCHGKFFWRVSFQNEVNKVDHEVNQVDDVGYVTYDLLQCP
Data set [14] has as its system BMMC. Description: Inhibition of M-CSF/RANKL-induced matrix resorption capacity in C57BL/6 mouse BMMC at 10 to 20 uM after 4 days in hydroxyapatite-coated plates. The data set is classed as functional, cell-based.
The subject of data set [15] is Mus musculus. Description: Antiperiodontitic activity in BALB/c mouse model of Porphyromonas gingivalis-induced periodontitis assessed as reduction in alveolar bone resorption at 100 ug/kg, id dosed once in 2 days for 30 days. In kind it is functional, organism-based.
In data set [16] the test system is Mus musculus. Description: Antiperiodontitic activity in BALB/c mouse model of Porphyromonas gingivalis-induced periodontitis assessed as reduction in maxillary tissue Trap/Acp5 mRNA levels at 100 ug/kg, id dosed once in 2 days for 30 days. The data set is classed as functional, organism-based.
Data set [17] relates to Mus musculus. Description: Antiperiodontitic activity in BALB/c mouse model of Porphyromonas gingivalis-induced periodontitis assessed as reduction in maxillary tissue CtsK mRNA levels at 100 ug/kg, id dosed once in 2 days for 30 days. In kind it is functional, organism-based.
Data set [18] concerns Mus musculus. The data set is described as follows: Antiperiodontitic activity in BALB/c mouse model of Porphyromonas gingivalis-induced periodontitis assessed as reduction in maxillary tissue Mmp9 mRNA levels at 100 ug/kg, id dosed once in 2 days for 30 days. In kind it is functional, organism-based.

On to `CC(C)=CCc1c(O)c(C(=O)CC(C)COC(=O)/C=C/c2ccccc2)c(O)c2c(-c3ccccc3)cc(=O)oc12` (stereo not drawn), for which the inhibition result in the data set with BMMC [1] was “Dose-dependent effect”. Further, the inhibition entry (with BMMC [2]; in data set [13]; with BMMC [14]) was “Active” in each case. Also, the Activity entry in the data set on BMMC [3] was “Non-Toxic”; in the data set on BMMC [10], “Dose-dependent effect”. For the same compound, the outcome with BMMC [4], in the data set with BMMC [5], in the data set on BMMC [6], with BMMC [7], in the data set on BMMC [8] and in the data set with BMMC [9] was Active. The outcome in the data set with BMMC [11], with BMMC [12], with Mus musculus [15], in the data set on Mus musculus [16] and in the data set with Mus musculus [17] was Active. In addition, in the data set on Mus musculus [18], the outcome was inactive.
